Results from patent US11051515B2, “3-acyl-benzamides and their use as herbicides” (Bayer Aktiengesellschaft, priority 2017, dated 2021).

Experiments:
LOLRI [1] = assay: Post-emergence action against LOLRI; type: in vivo, Lolium rigidum; details: dosage 80 g/ha, visual assessment about 3 weeks after treatment vs untreated controls
Experimental: Seeds of monocotyledonous and dicotyledonous weed and crop plants are laid out in sandy loam soil in wood-fiber pots, covered with soil and cultivated in a greenhouse under good growth conditions. 2 to 3 weeks after sowing, the test plants are treated at the one-leaf stage. The compounds of the invention, formulated in the form of wettable powders (WP) or as emulsion concentrates (EC), are then sprayed onto the green parts of the plants in the form of an aqueous suspension or emulsion at a water application rate equating to […], with addition of 0.2% wetting agent. After the test plants have been left to stand in the greenhouse under optimal growth conditions for about 3 weeks, the action of the preparations is assessed visually in comparison to untreated controls (herbicidal action in percent (%): 100% activity=the plants have died, 0% activity=like control plants). […] At the same time, inventive compounds leave Gramineae crops such as barley, wheat, rye, millet/Sorghum, corn or rice virtually undamaged when applied post-emergence, even at high active ingredient dosages. In addition, some substances are also harmless to dicotyledonous crops such as soya, cotton, oilseed rape, sugar beet or potatoes. Some of the compounds according to the invention have high selectivity and are therefore suitable for controlling unwanted vegetation in agricultural crops by the post-emergence method. The data of Tables B18 to B34 below illustrate, in an exemplary manner, the […] herbicidal action of the compounds according to the invention, the herbicidal activity being stated in percent.

VIOTR [2] = assay: Pre-emergence action against VIOTR; type: in vivo, Viola tricolor; details: Dosage 320 g/ha, pre-emergence
Outline: (§1)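 Seeds sown in sandy loam in wood-fiber pots and covered with soil. Greenhouse growth; visual damage scored after 3 weeks versus untreated controls (100% = dead, 0% = like control).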

VERPE [3] = assay: Pre-emergence action against VERPE; type: in vivo, Veronica persica; details: Dosage 320 g/ha, pre-emergence
Outline: as §1

PHBPU [4] = assay: Post-emergence action against PHBPU; type: in vivo, Pharbitis purpurea; details: post-emergence, dosage 80 g/ha
Outline: (§2)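 Weeds grown in sandy loam in greenhouse, treated at one-leaf stage (2–3 weeks after sowing) with WP or EC formulations sprayed as aqueous suspension/emulsion at 600 to […] water with 0.2% wetting agent. Visual rating after about 3 weeks versus untreated controls, as % herbicidal action (100% = plants dead, 0% = like control).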

ECHCG [5] = assay: Post-emergence action against ECHCG; type: in vivo, Echinochloa crus-galli; details: post-emergence, dosage 80 g/ha, visual assessment about 3 weeks after treatment vs untreated controls
Outline: as §2

SETVI [6] = assay: Pre-emergence action against SETVI; type: in vivo, Setaria viridis; details: pre-emergence, dosage 320 g/ha, scored visually after 3 weeks vs untreated controls
Outline: as §1

ABUTH [7] = assay: Pre-emergence action against ABUTH; type: in vivo, Abutilon theophrasti; details: pre-emergence, dosage 320 g/ha, scored visually after 3 weeks vs untreated controls
Outline: as §1

AMARE [8] = assay: Pre-emergence action against AMARE; type: in vivo, Amaranthus retroflexus; details: pre-emergence, dosage 320 g/ha, scored visually after 3 weeks vs untreated controls
Outline: as §1

AVEFA [9] = assay: Post-emergence action against AVEFA; type: in vivo, Avena fatua; details: post-emergence, dosage 80 g/ha, visual assessment about 3 weeks after treatment vs untreated controls
Outline: as §2

ABUTH [10] = assay: Post-emergence action against ABUTH; type: in vivo, Abutilon theophrasti; details: post-emergence, dosage 80 g/ha, visual assessment about 3 weeks after treatment vs untreated controls
Outline: as §2

LOLRI [11] = assay: Pre-emergence action against LOLRI; type: in vivo, Lolium rigidum; details: dosage 320 g/ha, scored visually after 3 weeks vs untreated controls
Outline: as §1

ALOMY [12] = assay: Pre-emergence action against ALOMY; type: in vivo, Alopecurus myosuroides; details: dosage 320 g/ha; pre-emergence; scored visually after 3 weeks vs untreated controls; 100% = plants have died, 0% = like control plants
Outline: as §1

AVEFA [13] = assay: Pre-emergence action against AVEFA; type: in vivo, Avena fatua; details: dosage 320 g/ha, scored visually after 3 weeks vs untreated controls
Outline: as §1

MATIN [14] = assay: Pre-emergence action against MATIN; type: in vivo, Matricaria inodora; details: Dosage 320 g/ha, pre-emergence
Outline: as §1

MATIN [15] = assay: Post-emergence action against MATIN; type: in vivo, Matricaria inodora; details: post-emergence, dosage 80 g/ha, visual assessment about 3 weeks after treatment vs untreated controls
Outline: as §2

CYPES = assay: Pre-emergence action against CYPES; type: in vivo, Cyperus esculentus; details: pre-emergence, dosage 320 g/ha, scored visually after 3 weeks vs untreated controls
Outline: as §1

SETVI [16] = assay: Post-emergence action against SETVI; type: in vivo, Setaria viridis; details: post-emergence, dosage 80 g/ha, visual assessment about 3 weeks after treatment vs untreated controls
Outline: as §2

AMARE [17] = assay: Post-emergence action against AMARE; type: in vivo, Amaranthus retroflexus; details: post-emergence, dosage 80 g/ha, visual assessment about 3 weeks after treatment vs untreated controls
Outline: as §2

ECHCG [18] = assay: Pre-emergence action against ECHCG; type: in vivo, Echinochloa crus-galli; details: pre-emergence, dosage 320 g/ha, scored visually after 3 weeks vs untreated controls
Outline: as §1

STEME [19] = assay: Pre-emergence action against STEME; type: in vivo, Stellaria media; details: Dosage 320 g/ha, pre-emergence
Outline: as §1

POLCO [20] = assay: Pre-emergence action against POLCO; type: in vivo, Polygonum convolvulus; details: Dosage 320 g/ha, pre-emergence
Outline: as §1

ALOMY [21] = assay: Post-emergence action against ALOMY; type: in vivo, Alopecurus myosuroides; details: Dosage 80 g/ha, post-emergence
Outline: as §2

PHBPU [22] = assay: Pre-emergence action against PHBPU; type: in vivo, Pharbitis purpurea; details: Dosage 320 g/ha, pre-emergence
Outline: as §1

LOLMU = assay: Pre-emergence action against LOLMU; type: in vivo, Lolium multiflorum; details: dosage 320 g/ha, scored visually after 3 weeks vs untreated controls
Description: Seeds of monocotyledonous and dicotyledonous weed plants and crop plants are laid out in sandy loam soil in wood-fiber pots and covered with soil. The compounds of the invention, formulated in the form of wettable powders (WP) or as emulsion concentrates (EC), are then applied to the surface of the covering soil in the form of an aqueous suspension or emulsion at a water application rate equating to […], with addition of 0.2% wetting agent. After the treatment, the pots are placed in a greenhouse and kept under good growth conditions for the trial plants. The damage to the test plants is scored visually after a test period of 3 weeks by comparison with untreated controls (herbicidal activity in percent (%): 100% activity=the plants have died, 0% activity=like control plants).

POLCO [23] = assay: Post-emergence action against POLCO; type: in vivo, Polygonum convolvulus; details: post-emergence, dosage 80 g/ha
Outline: as §2

STEME [24] = assay: Post-emergence action against STEME; type: in vivo, Stellaria media; details: post-emergence, dosage 80 g/ha
Outline: as §2

VERPE [25] = assay: Post-emergence action against VERPE; type: in vivo, Veronica persica; details: dosage 80 g/ha
Outline: as §2

VIOTR [26] = assay: Post-emergence action against VIOTR; type: in vivo, Viola tricolor; details: post-emergence, dosage 80 g/ha
Outline: as §2

| Structure (SMILES) | Pre-emergence action against VIOTR (VIOTR [2]) | Pre-emergence action against VERPE (VERPE [3]) | Post-emergence action against PHBPU (PHBPU [4]) | Post-emergence action against ECHCG (herbicidal action in percent) (ECHCG [5]) | SETVI (Table B8, pre-emergence herbicidal activity) (SETVI [6]) | Pre-emergence action against ABUTH (herbicidal activity) (ABUTH [7]) | Pre-emergence action against AMARE (herbicidal activity) (AMARE [8]) | Post-emergence action against AVEFA (herbicidal action in percent) (AVEFA [9]) | Post-emergence action against ABUTH (herbicidal action in percent) (ABUTH [10]) | Pre-emergence action against ALOMY (herbicidal activity in percent) (ALOMY [12]) | Pre-emergence action against AVEFA (herbicidal activity) (AVEFA [13]) | Pre-emergence action against MATIN (MATIN [14]) | Post-emergence action against MATIN (herbicidal action in percent) (MATIN [15]) | Pre-emergence action against CYPES (herbicidal activity) (CYPES) | Post-emergence action against SETVI (herbicidal action in percent) (SETVI [16]) | Post-emergence action against AMARE (herbicidal action in percent) (AMARE [17]) | Pre-emergence action against ECHCG (herbicidal activity) (ECHCG [18]) | Pre-emergence action against STEME (STEME [19]) | also measured |
| --- | --- | --- | --- | --- | --- | --- | --- | --- | --- | --- | --- | --- | --- | --- | --- | --- | --- | --- | --- |
| CCn1nnnc1NC(=O)c1ccc(C(F)(F)F)c(C(=O)C2(C)CC2)c1Cl [2-147] | 100% | 80% | 90 | 80% | 100% | 100% | 100% | 80% | 90% | 90% | 90% | 100% | 100% | 80% | 80% | 80% | 100% | 100% | Post-emergence action against LOLRI (herbicidal action in percent) (LOLRI [1]): 80%; Pre-emergence action against LOLRI (herbicidal activity) (LOLRI [11]): 90% |
| CCn1nnnc1NC(=O)c1ccc(C(F)(F)F)c(C(=O)C2CC2)c1OC [2-50] | 100% | 100% | 100 | 100% | 100% | 100% | 100% | 90% | 90% | 100% | 100% | 100% | 100% | 100% | 100% | 100% | 100% | 100% | Pre-emergence action against POLCO (POLCO [20]): 80%; Post-emergence action against ALOMY (ALOMY [21]): 90%; Pre-emergence action against PHBPU (PHBPU [22]): 100%; Pre-emergence action against LOLMU (herbicidal activity) (LOLMU): 100%; Post-emergence action against POLCO (POLCO [23]): 90; Post-emergence action against STEME (STEME [24]): 100; Post-emergence action against VERPE (VERPE [25]): 90; Post-emergence action against VIOTR (VIOTR [26]): 100 |
